Values of other authors as cited in US10632107B2, “Crystalline forms of benzoquinoline inhibitors of vesicular monoamine transporter 2” (Apotex Inc., priority 2018, dated 2020).
Where two headings read alike, the source gives them in different places.

Structure (SMILES): COc1cc2c(cc1OC)C1CC(=O)C(CC(C)C)CN1CC2 (racemic) [Tetrabenazine, rel-(3R,11bR)-1,3,4,6,7,11b-hexahydro-9,10-dimethoxy-3-(2-methylpropyl)-2H-benzo[a]quinolizin-2-one]
- solubility (low pH of the stomach): slight solubility
- solubility (pH values of greater than 4): practically insoluble
